Assay results as given in the supplement of paper PMC10307832.

Columns and labels:
Test in all cases: relative viability (nuclei count vs DMSO), 5 days (fraction); higher = more cells survive
[1] = compound: C1/C(=C\C2=CC=CS2)/C(=O)/C(=C/C3=CC=CS3)/C1 + Cc1cc(Nc2cc(N3CCN(C)CC3)nc(Sc3ccc(NC(=O)C4CC4)cc3)n2)n[nH]1 [Tozasertib] (partner 0.1 µM)
Method in brief: (§1)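 Nuclei were stained with Hoechst during a one-step fixation (final 0.05% Triton X-100, 1% formaldehyde, 1 ug/ml Hoechst) carried out 5 days after dosing, then counted on 4× images. The cells, lung cancer lines in 1536-well plates, had been dosed by pin tool the day after seeding with one drug alone or a fixed anchor-drug dose plus five library-drug doses (not always all listed) in √10 steps. Relative viability is the nuclei count in treated wells divided by that in vehicle wells, and each value is the median of duplicate plates.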

TPCA-1 + OSI-027 = compound: C1=CC(=CC=C1C2=CC(=C(S2)NC(=O)N)C(=O)N)F [TPCA-1] + COc1cccc2cc(-c3nc([C@H]4CC[C@H](C(=O)O)CC4)n4ncnc(N)c34)[nH]c12 [OSI-027] (partner 0.5 µM)
Method in brief: as §1

[2] = compound: C[C@]12O[C@H](C[C@]1(O)CO)n1c3ccccc3c3c4c(c5c6ccccc6n2c5c31)CNC4=O [Lestaurtinib] + CS(=O)(=O)N1CCN(Cc2cc3nc(-c4cccc5[nH]ncc45)nc(N4CCOCC4)c3s2)CC1 [Pictilisib] (partner 1 µM)
Method in brief: as §1

[3] = compound: C[C@]12O[C@H](C[C@]1(O)CO)n1c3ccccc3c3c4c(c5c6ccccc6n2c5c31)CNC4=O [Lestaurtinib] + O=C(CCCCCCC(=O)Nc1ccccc1)NO [Vorinostat] (partner 1 µM)
Method in brief: as §1

Row | Cell Line | relative viability ([1]; first compound 0.2 µM) | relative viability ([1]; first compound 0.6325 µM) | relative viability ([1]; first compound 2 µM) | relative viability ([1]; first compound 6.325 µM) | relative viability ([1]; first compound 20 µM) | relative viability (TPCA-1 + OSI-027; first compound 0.04 µM) | relative viability (TPCA-1 + OSI-027; first compound 0.1265 µM) | relative viability (TPCA-1 + OSI-027; first compound 0.4 µM) | relative viability (TPCA-1 + OSI-027; first compound 1.265 µM) | relative viability (TPCA-1 + OSI-027; first compound 4 µM) | relative viability ([2]; first compound 0.005 µM) | relative viability ([2]; first compound 0.01581 µM) | relative viability ([2]; first compound 0.05 µM) | relative viability ([2]; first compound 0.1581 µM) | relative viability ([2]; first compound 0.5 µM) | relative viability ([3]; first compound 0.005 µM) | relative viability ([3]; first compound 0.01581 µM) | relative viability ([3]; first compound 0.05 µM) | relative viability ([3]; first compound 0.1581 µM) | relative viability ([3]; first compound 0.5 µM)
1 | NCI-H23 | 0.374 | 0.394 | 0.373 | 0.421 | 0.323 | 0.599 | 0.574 | 0.514 | 0.429 | 0.149 | 0.5 | 0.468 | 0.353 | 0.375 | 0.204 | 0.602 | 0.645 | 0.549 | 0.308 | 0.126
2 | NCI-H322M | 0.533 | 0.439 | 0.474 | 0.454 | 0.483 | 0.567 | 0.534 | 0.564 | 0.581 | 0.382 | 0.493 | 0.5 | 0.445 | 0.443 | 0.401 | 0.764 | 0.935 | – | 0.701 | 0.461
3 | NCI-H358 | 0.101 | 0.096 | 0.112 | – | 0.11 | 0.808 | 0.657 | 0.816 | 0.52 | 0.226 | 0.346 | 0.28 | 0.28 | 0.221 | 0.181 | 0.691 | 0.539 | 0.382 | 0.145 | 0.117
4 | NCI-H441 | 0.657 | 0.614 | 0.613 | 0.631 | 0.528 | 0.841 | 0.443 | 0.511 | 0.302 | 0.201 | 0.346 | 0.342 | 0.215 | 0.299 | 0.171 | 0.641 | 0.837 | 0.62 | 0.573 | 0.389
5 | NCI-H460 | 0.377 | 0.438 | 0.401 | 0.323 | 0.321 | 0.794 | 0.642 | 0.631 | 0.584 | 0.137 | 0.315 | 0.392 | 0.298 | 0.224 | 0.201 | 1 | 1.01 | 0.653 | 1.1 | 0.503
6 | NCI-H520 | 0.531 | 0.506 | 0.458 | 0.398 | 0.406 | 0.302 | 0.234 | 0.19 | 0.231 | 0.243 | 0.279 | 0.319 | 0.211 | 0.228 | 0.18 | 0.68 | 0.675 | 0.632 | 0.371 | 0.211
7 | NCI-H596 | 0.726 | 0.865 | 1.11 | 0.855 | 0.995 | 0.717 | 0.584 | 0.678 | 0.787 | 0.389 | 0.375 | 0.378 | 0.375 | 0.31 | 0.293 | 0.539 | 0.746 | 0.718 | 0.645 | 0.795
8 | NCI-H647 | 0.382 | 0.379 | 0.296 | 0.271 | 0.238 | 0.633 | 0.573 | 0.602 | 0.55 | 0.245 | 0.413 | 0.289 | 0.197 | 0.193 | 0.105 | 0.629 | 0.695 | 0.391 | 0.284 | 0.109
9 | NCI-H650 | 0.857 | 0.716 | 0.675 | 0.689 | 0.786 | 0.533 | 0.498 | 0.617 | 0.286 | 0.374 | 0.816 | 0.818 | 0.63 | 0.399 | 0.332 | 0.448 | 0.427 | 0.385 | 0.28 | 0.149
10 | NCI-H661 | 0.324 | 0.361 | 0.374 | 0.308 | 0.36 | 0.734 | 0.665 | 0.749 | 0.607 | 0.39 | 0.35 | 0.461 | 0.411 | 0.352 | 0.336 | 0.873 | 0.669 | 0.525 | 0.4 | 0.339
11 | NCI-H727 | 0.725 | 0.619 | 0.627 | 0.478 | 0.536 | 0.603 | 0.43 | 0.664 | 0.369 | 0.541 | 0.396 | 0.566 | 0.278 | 0.409 | 0.229 | 1.23 | 1.35 | 1.17 | – | 0.625
12 | NCI-H838 | 0.295 | 0.264 | 0.321 | 0.216 | 0.231 | 0.427 | 0.353 | 0.391 | 0.389 | 0.299 | 0.492 | 0.479 | 0.378 | 0.309 | 0.169 | 0.792 | 0.724 | 0.681 | 0.333 | 0.172
13 | NCI-H1355 | 0.565 | 0.577 | 0.603 | 0.562 | 0.48 | 0.466 | 0.365 | 0.414 | 0.313 | 0.234 | 0.412 | 0.363 | 0.314 | 0.389 | 0.273 | 0.733 | 0.675 | 0.457 | 0.412 | 0.31
14 | NCI-H1395 | 0.767 | 0.879 | 0.91 | 0.686 | 0.754 | 0.745 | 0.631 | 0.738 | 0.585 | 0.592 | 0.597 | 0.542 | 0.536 | 0.463 | 0.405 | 0.696 | 0.902 | 0.607 | 0.47 | 0.343
15 | NCI-H1437 | 0.408 | 0.413 | 0.452 | 0.273 | 0.407 | 0.888 | 0.89 | 0.908 | 0.921 | 0.652 | 0.466 | 0.491 | 0.375 | 0.245 | 0.14 | 0.819 | 1 | 0.843 | 0.731 | 0.525
